Test results published in patent US12466821B2 (Novartis AG, priority 2018, dated 2025).
Where two headings read alike, the source gives them in different places.

Tests used:
Assay type in all cases: cell-based
[1] = system: VZV Ellen strain; assay: VZV qPCR assay (cellular herpesvirus replication); details: Human alphaherpesvirus 3, MRC5, 48 h; MRC-5 cells, qPCR after two days; n>3, value (+/- spread)
Protocol: (§1) For all viral assays, 10 mM DMSO stock compound solutions were serially diluted in DMSO at 3.16 fold dilutions in 96-well clear round bottom plates. Compounds were then diluted in assay media at 1:20 and subsequently 10 μL of these dilutions were added to cells for final compound concentrations ranging either from 0.0159 μM to 50 μM in 0.5% DMSO/assay media, or from 0.00318 to 10 μM in 0.5% DMSO/assay media.
VZV qPCR assay: The assay uses co-infection with VZV Ellen strain-infected MRC-5 cells (ATCC cat #VR-1367). Viral replication in the presence or absence of compounds was measured by qPCR according to the following procedure: 12,000 uninfected MRC-5 cells were mixed with VZV-infected MRC-5 cells at a ratio of 1 to 10 infected to uninfected cells, in 96-well white-wall clear bottom plates in 90 μL/well of assay media: 4% FBS in EMEM (ATCC cat #30-2003). […] The chosen ratio of infected to uninfected cells gave approximately 3% VZV-positive cells at 6 hours post co-culturing, as detected by immunofluorescent staining of VZV Immediate Early 62 gene. […]
qPCR reactions were carried out in a total reaction volume of 20 μL, using the QuantiFast® Multiplex PCR kit (Qiagen cat #204656). […]
(§2) Relative quantification was calculated with the ΔΔCT Method, and then converted into percent inhibitions. […] EC50 values were calculated using XLFit Dose Response One Site Model 205.

[2] = system: Luciferase-encoding HCMV, AD169 strain; assay: CMV Luciferase assay (cellular herpesvirus replication)
Summary of the method: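 Neonatal human dermal fibroblasts were pretreated 1 h with compound (final 0.0159–50 μM or 0.00318–10 μM, 0.5% DMSO), then infected at MOI 1 with AD169 carrying pp28-promoter luciferase. After 72 h at 37 °C, Renilla-Glo luminescence normalized to no-virus and virus-only controls; EC50 by 4-parameter logistic model.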

[3] = system: KOS strain of HSV-1 virus; assay: HSV-1 qPCR assay (cellular herpesvirus replication); details: Human alphaherpesvirus 1; NN-NHDF cells, qPCR after 24 hrs; n>3, value (+/- spread)
Protocol: as §1
HSV-1 qPCR assay: The assay uses KOS strain of HSV-1 virus (ATCC cat #VR-1493). Viral replication in the presence or absence of compounds was measured by qPCR according to the following procedure: NN-NHDF cells were plated at 9,000 cells/well in 96-well white-wall clear bottom plates in 80 μL/well of assay media (same as CMV) and left at room temperature in laminar flow hood for 20 mins followed by incubation at 37° C. […]
qPCR reactions were carried out in a total reaction volume of 20 μL, using the QuantiFast® Multiplex PCR kit (Qiagen cat #204656). Eighteen μL of qPCR master mix (10 μL of 2× QuantiFast® Multiplex PCR Master Mix, 1 μL of 20× Primer/Probe Mix specific to housekeeping gene, 1 μL of 20× Primer/Probe Mix specific to viral gene, 6 μL of H2O) was distributed into each well of a 384 well plate. […]
as §2

N#Cc1ccc(CNC(=O)c2ccc3n(c2=O)CCN(CC2(S(=O)(=O)C4CC4)CC2)C3=O)cc1 [Example 1, N-(4-cyanobenzyl)-2-((1-(cyclopropylsulfonyl)cyclopropyl)methyl)-1,6-dioxo-2,3,4,6-tetrahydro-1H-pyrido[1,2-a]pyrazine-7-carboxamide]
EC50 [1]: 20 nM | EC50 ([2]; Human betaherpesvirus 5, AD169, read-out: CMV-Luc Cellular EC50): 23.2 nM | EC50 ([2]; Human betaherpesvirus 5, AD169, read-out: EC50 Human herpesvirus CMV): 24 nM | EC50 [3]: 32 nM
